Results on 56 compounds are retold here after ChEMBL document CHEMBL1139078, “ortho-Substituted azoles as selective and dual inhibitors of VEGF receptors 1 and 2” (Bioorg Med Chem Lett, 2007).

Data set [1] in a line: Intrinsic permeability across Caco-2 cell monolayers. The conditions noted are these: human.
For data set [2], the target named is T1, Vascular endothelial growth factor receptor 2 (Homo sapiens, UniProt P35968). Nature of the data set: Inhibition of VEGFR2 by cell-based assay. The data set is classed as functional.
T1 sequence (P35968 whole entry): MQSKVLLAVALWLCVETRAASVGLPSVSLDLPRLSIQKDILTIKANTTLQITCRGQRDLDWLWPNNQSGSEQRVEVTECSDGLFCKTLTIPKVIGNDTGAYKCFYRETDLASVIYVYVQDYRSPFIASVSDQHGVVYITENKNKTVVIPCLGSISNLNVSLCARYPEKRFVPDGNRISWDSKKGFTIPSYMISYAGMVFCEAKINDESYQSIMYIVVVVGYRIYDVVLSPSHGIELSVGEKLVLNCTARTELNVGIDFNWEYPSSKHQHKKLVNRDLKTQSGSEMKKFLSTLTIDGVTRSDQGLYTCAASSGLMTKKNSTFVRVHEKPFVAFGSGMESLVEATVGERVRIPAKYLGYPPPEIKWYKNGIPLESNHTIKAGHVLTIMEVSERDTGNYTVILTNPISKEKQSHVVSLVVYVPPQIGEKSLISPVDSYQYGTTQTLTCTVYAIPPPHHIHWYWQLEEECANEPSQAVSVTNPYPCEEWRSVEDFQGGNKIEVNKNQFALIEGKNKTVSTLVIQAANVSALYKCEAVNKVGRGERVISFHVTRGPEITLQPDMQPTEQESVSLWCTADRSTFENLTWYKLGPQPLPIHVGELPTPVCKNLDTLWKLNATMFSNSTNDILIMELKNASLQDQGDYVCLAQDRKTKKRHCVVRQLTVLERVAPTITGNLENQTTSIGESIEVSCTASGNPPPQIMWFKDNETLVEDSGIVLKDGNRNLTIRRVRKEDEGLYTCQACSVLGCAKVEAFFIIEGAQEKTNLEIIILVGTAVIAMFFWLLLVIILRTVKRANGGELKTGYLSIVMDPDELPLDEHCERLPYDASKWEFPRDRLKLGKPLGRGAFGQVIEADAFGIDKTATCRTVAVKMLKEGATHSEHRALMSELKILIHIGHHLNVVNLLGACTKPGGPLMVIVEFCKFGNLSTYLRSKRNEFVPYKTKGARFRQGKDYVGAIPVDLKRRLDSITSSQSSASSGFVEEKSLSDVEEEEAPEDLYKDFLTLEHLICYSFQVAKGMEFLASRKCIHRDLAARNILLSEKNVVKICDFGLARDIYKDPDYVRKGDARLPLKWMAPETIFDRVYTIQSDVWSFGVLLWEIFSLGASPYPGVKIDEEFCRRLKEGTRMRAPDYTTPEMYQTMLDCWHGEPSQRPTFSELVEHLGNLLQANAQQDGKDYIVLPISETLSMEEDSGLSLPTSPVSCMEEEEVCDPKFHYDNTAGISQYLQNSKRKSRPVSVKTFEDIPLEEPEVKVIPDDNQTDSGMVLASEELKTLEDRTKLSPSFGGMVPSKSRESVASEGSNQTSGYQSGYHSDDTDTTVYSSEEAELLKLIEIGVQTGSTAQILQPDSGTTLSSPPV
The target of data set [3] is T1, Vascular endothelial growth factor receptor 2. Nature of the data set: Inhibition of VEGFR2 by HTRF assay.
Data set [4] addresses Vascular endothelial growth factor receptor 1 (Homo sapiens, UniProt P17948). Briefly: Inhibition of VEGFR1 by HTRF assay. A general note: Time-resolved FRET reads energy transfer from a long-lived donor to a nearby acceptor.

Sequence of Vascular endothelial growth factor receptor 1 (P17948 whole entry, looked up): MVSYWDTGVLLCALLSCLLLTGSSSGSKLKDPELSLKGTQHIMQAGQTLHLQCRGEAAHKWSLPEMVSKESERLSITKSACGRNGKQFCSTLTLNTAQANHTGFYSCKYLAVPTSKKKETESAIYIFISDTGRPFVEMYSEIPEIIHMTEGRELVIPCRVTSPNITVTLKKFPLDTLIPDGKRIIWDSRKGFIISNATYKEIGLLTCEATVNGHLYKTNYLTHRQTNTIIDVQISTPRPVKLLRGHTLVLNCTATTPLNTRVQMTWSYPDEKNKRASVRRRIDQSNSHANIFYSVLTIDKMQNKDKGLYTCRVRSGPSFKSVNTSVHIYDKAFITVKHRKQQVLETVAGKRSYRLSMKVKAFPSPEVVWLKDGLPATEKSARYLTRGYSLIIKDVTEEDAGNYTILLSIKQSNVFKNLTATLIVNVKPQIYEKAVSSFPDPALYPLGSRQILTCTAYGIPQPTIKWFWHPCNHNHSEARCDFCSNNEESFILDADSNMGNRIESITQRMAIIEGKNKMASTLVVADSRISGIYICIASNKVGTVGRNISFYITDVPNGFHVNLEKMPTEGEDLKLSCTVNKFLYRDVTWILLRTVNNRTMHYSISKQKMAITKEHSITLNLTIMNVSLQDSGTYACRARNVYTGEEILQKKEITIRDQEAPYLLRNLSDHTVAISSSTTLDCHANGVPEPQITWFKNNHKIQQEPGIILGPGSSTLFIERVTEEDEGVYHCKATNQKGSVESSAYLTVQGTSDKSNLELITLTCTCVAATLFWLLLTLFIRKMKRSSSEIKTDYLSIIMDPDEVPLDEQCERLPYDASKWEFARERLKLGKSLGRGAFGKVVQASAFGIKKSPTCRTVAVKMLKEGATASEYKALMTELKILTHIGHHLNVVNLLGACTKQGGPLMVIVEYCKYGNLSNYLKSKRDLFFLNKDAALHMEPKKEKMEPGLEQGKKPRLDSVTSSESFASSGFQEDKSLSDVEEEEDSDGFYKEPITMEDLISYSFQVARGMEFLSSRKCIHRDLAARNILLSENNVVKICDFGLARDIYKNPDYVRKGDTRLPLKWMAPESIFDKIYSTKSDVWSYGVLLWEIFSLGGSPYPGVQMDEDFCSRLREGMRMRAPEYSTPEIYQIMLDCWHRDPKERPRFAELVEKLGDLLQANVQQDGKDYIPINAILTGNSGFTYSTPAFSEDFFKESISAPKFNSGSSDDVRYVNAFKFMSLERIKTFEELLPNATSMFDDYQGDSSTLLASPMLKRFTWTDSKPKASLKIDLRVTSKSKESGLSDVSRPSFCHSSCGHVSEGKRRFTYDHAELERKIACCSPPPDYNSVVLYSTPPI

A word on the Papp: it is a coefficient for how fast a substance crosses the barrier. The low end stands for poor permeation, the high end for ready permeation. Take `O=C(Nc1cnc2ccccc2c1)c1ccccc1NCc1ccncc1`: the Papp in data set [1] is 2.88 ×10⁻⁶ cm/s.

The term IC50 denotes the concentration needed to halve the response being measured. On to `Cc1noc(NCc2ccncc2)c1C(=O)Nc1cccc(Cl)c1`, for which the IC50 in data set [2], in data set [3] and in data set [4] was over 10 µM each time.

In the case of `Cn1cnc(NCc2ccncc2)c1C(=O)Nc1ccc(-c2ccccc2)cc1`, the IC50 in data set [2] is over 10 µM; in data set [3], 3.77 µM; in data set [4], over 10 µM.

Turning to `Cn1cnc(NCc2ccncc2)c1C(=O)Nc1ccc(Oc2ccccc2)cc1`, the IC50 is over 10 µM in data set [2], 4.29 µM in data set [3] and over 10 µM in data set [4].

With `Cn1cnc(NCc2ccncc2)c1C(=O)Nc1cnc2ccccc2c1`, the values for the IC50 in data set [2], in data set [3] and in data set [4] were 0.92 µM, 0.23 µM and 0.35 µM, respectively.

With `Cn1cnc(NCc2ccncc2)c1C(=O)Nc1ccc(C(F)(F)F)c(C(F)(F)F)c1`, the 50% inhibitory concentration (IC50) in data set [2] was determined as 0.11 µM; in data set [3] it was 0.58 µM; in data set [4], 0.69 µM.

`Cn1ncc(NCc2ccncc2)c1C(=O)Nc1cccc(C(F)(F)F)c1`: the IC50 in data set [2] is 1.34 µM; in data set [3], 0.75 µM; in data set [4], 1.06 µM.

With `Cc1noc(NCc2ccncc2)c1C(=O)Nc1ccc(C(C)(C)C)cc1`, the IC50 in data set [2] was determined as 0.21 µM; in data set [3] it was 0.28 µM; in data set [4] it was 0.42 µM.

`Cc1noc(NCc2ccncc2)c1C(=O)Nc1ccc(C(C)C)cc1`: the 50% inhibitory concentration (IC50) in data set [2] was found to be 0.35 µM; in data set [3], 0.44 µM; in data set [4] it was 0.76 µM.

In the case of `Cn1cnc(NCc2ccncc2)c1C(=O)Nc1ccc2cn[nH]c2c1`, the IC50 in data set [2] is over 10 µM; in data set [3], 5.73 µM; in data set [4] it was over 10 µM.

With `Cn1ncc(NCc2cccnc2)c1C(=O)Nc1cccc(C(F)(F)F)c1`, the half-inhibitory concentration (IC50) in data set [2], in data set [3] and in data set [4] was over 10 µM throughout.

On to `Cn1ncc(NCc2cccnc2)c1C(=O)Nc1ccc(C(F)(F)F)cc1`, for which the IC50 in data set [2], in data set [3] and in data set [4] was over 10 µM each time.

For `Cn1ncc(NCc2ccncc2)c1C(=O)Nc1ccc(C(F)(F)F)c(C(F)(F)F)c1`, the IC50 in data set [2] was 0.13 µM; in data set [3], 0.84 µM; in data set [4], 0.92 µM.

For `Cc1noc(NCc2ccncc2)c1C(=O)Nc1ccc(Cc2ccccc2)cc1`, the half-inhibitory concentration (IC50) in data set [2] is over 10 µM; in data set [3], 5.8 µM; in data set [4] it was over 10 µM.

As to `Cc1noc(NCc2ccncc2)c1C(=O)Nc1cnc2ccccc2c1`, the IC50 is 3.54 µM in data set [2], 0.94 µM in data set [3] and 1.22 µM in data set [4].

Turning to `Cn1ncc(NCc2ccncc2)c1C(=O)Nc1ccc(C(F)(F)F)cc1`, the IC50 turned out to be 0.13 µM in data set [2], 0.28 µM in data set [3] and 0.31 µM in data set [4].

As for `Cn1ncc(NCc2ccncc2)c1C(=O)Nc1cccc(OC(F)(F)F)c1`, the IC50 in data set [2] was determined as 0.47 µM; in data set [3], 2.06 µM; in data set [4], 2.44 µM.

For `Cc1noc(NCc2ccncc2)c1C(=O)Nc1ccc(Cl)c(Cl)c1`, the half-inhibitory concentration (IC50) in data set [2] was found to be 0.93 µM; in data set [3], 0.97 µM; in data set [4], 1.25 µM.

Regarding `COc1ccc(NC(=O)c2c(C)noc2NCc2ccncc2)cc1OC`, the figures for the IC50 in data set [2], in data set [3] and in data set [4] were over 10 µM, 1.19 µM and 3.35 µM, respectively.

`Cn1ncc(NCc2ccncc2)c1C(=O)Nc1ccc(Cl)cc1`: the IC50 in data set [2] was 1 µM; in data set [3], 4.58 µM; in data set [4] it was over 10 µM.

Take `CC(C)c1ccc(NC(=O)c2c(NCc3ccncc3)cnn2C)cc1`: the figures for the half-maximal inhibitory concentration (IC50) in data set [2], in data set [3] and in data set [4] were 0.088 µM, 0.29 µM and 0.44 µM, respectively.

`Cn1ncc(NCc2ccncc2)c1C(=O)Nc1ccc(-c2ccccc2)cc1`: the 50% inhibitory concentration (IC50) in data set [2], in data set [3] and in data set [4] was over 10 µM in each case.

On to `Cc1cc(NC(=O)c2c(C)noc2NCc2ccncc2)ccc1C(F)(F)F`, for which the half-maximal inhibitory concentration (IC50) in data set [2] came out at 0.59 µM; in data set [3], 0.87 µM; in data set [4] it was 1.44 µM.

Regarding `Cn1ncc(NCc2ccncc2)c1C(=O)Nc1ccc(Oc2ccccc2)cc1`, the half-maximal inhibitory concentration (IC50) in data set [2], in data set [3] and in data set [4] was over 10 µM in each case.

Regarding `Cn1ncc(NCc2ccncc2)c1C(=O)Nc1ccc(Cc2ccccc2)cc1`, the IC50 in data set [2] is over 10 µM; in data set [3] it was 5.57 µM; in data set [4], over 10 µM.

`COc1ccc(NC(=O)c2c(NCc3ccncc3)cnn2C)cc1OC`: the IC50 in data set [2] stood at 0.091 µM; in data set [3], 0.35 µM; in data set [4] it was 0.51 µM.

With `Cn1ncc(NCc2ccncc2)c1C(=O)Nc1ccc(C(F)(F)F)c(Cl)c1`, the 50% inhibitory concentration (IC50) came to 0.079 µM in data set [2], 0.21 µM in data set [3] and 0.44 µM in data set [4].

`Cn1ncc(NCc2ccncc2)c1C(=O)Nc1cc(C(F)(F)F)cc(C(F)(F)F)c1`: the IC50 in data set [2] is 0.21 µM; in data set [3] it was 1.12 µM; in data set [4], 1.23 µM.

Consider `Cc1cc(NC(=O)c2c(NCc3ccncc3)cnn2C)ccc1C(F)(F)F`, for which the figures for the half-inhibitory concentration (IC50) in data set [2], in data set [3] and in data set [4] were 0.069 µM, 0.33 µM and 0.56 µM, respectively. The same compound gave an apparent permeability (Papp) in data set [1] of 5.52 ×10⁻⁶ cm/s.

For the compound `Cc1noc(NCc2ccncc2)c1C(=O)Nc1cccc(C(F)(F)F)c1`, the IC50 stood at 2.27 µM in data set [2], 1.56 µM in data set [3] and 1.69 µM in data set [4].

Regarding `Cn1cnc(NCc2ccncc2)c1C(=O)Nc1cccc(C(F)(F)F)c1`, the IC50 amounted to 0.55 µM in data set [2], 0.65 µM in data set [3] and 0.79 µM in data set [4].

For the compound `Cn1cnc(NCc2ccncc2)c1C(=O)Nc1ccc(C(F)(F)F)cc1`, the values for the half-maximal inhibitory concentration (IC50) in data set [2], in data set [3] and in data set [4] were 9.6 µM, 1.98 µM and 6 µM, respectively.

For `Cn1cnc(NCc2ccncc2)c1C(=O)Nc1cccc(OC(F)(F)F)c1`, the IC50 in data set [2] turned out to be 0.35 µM; in data set [3], 0.76 µM; in data set [4], 1.11 µM.

For `Cn1ncc(NCc2ccncc2)c1C(=O)Nc1ccc(Cl)c(Cl)c1`, the concentration for half-maximal inhibition (IC50) is 0.082 µM in data set [2], 0.25 µM in data set [3] and 0.36 µM in data set [4]. This compound had an apparent permeability coefficient (Papp) in data set [1] of 6.73 ×10⁻⁶ cm/s.

For `Cc1noc(NCc2ccncc2)c1C(=O)Nc1ccc(C(F)(F)F)cc1`, the IC50 in data set [2] was 0.18 µM; in data set [3] it was 0.37 µM; in data set [4] it was 0.56 µM.

As for `Cn1cnc(NCc2ccncc2)c1C(=O)Nc1ccc2c(c1)CN=N2`, the concentration for half-maximal inhibition (IC50) in data set [2] is over 10 µM; in data set [3], 6.02 µM; in data set [4], over 10 µM.

With `Cc1ccc(NC(=O)c2c(NCc3ccncc3)ncn2C)c(F)c1`, the 50% inhibitory concentration (IC50) in data set [2] stood at 1.25 µM; in data set [3], 0.84 µM; in data set [4], 1.35 µM.

As to `Cc1noc(NCc2ccncc2)c1C(=O)Nc1ccc(Oc2ccccc2)cc1`, the IC50 in data set [2], in data set [3] and in data set [4] was over 10 µM throughout.

On to `Cn1cnc(NCc2cccnc2)c1C(=O)Nc1cccc(C(F)(F)F)c1`, for which the IC50 in data set [2], in data set [3] and in data set [4] was over 10 µM each time.

Turning to `Cn1cnc(NCc2cccnc2)c1C(=O)Nc1ccc(C(F)(F)F)cc1`, the half-maximal inhibitory concentration (IC50) in data set [2], in data set [3] and in data set [4] was over 10 µM throughout.

On to `Cn1cnc(NCc2ccncc2)c1C(=O)Nc1ccc(OC(F)(F)F)cc1`, for which the values for the IC50 in data set [2], in data set [3] and in data set [4] were 0.11 µM, 1.15 µM and 1.43 µM, respectively.

Consider `Cn1cnc(NCc2ccncc2)c1C(=O)Nc1ccc(Cc2ccccc2)cc1`, for which the results for the IC50 in data set [2], in data set [3] and in data set [4] were over 10 µM, 5.57 µM and over 10 µM, respectively.

On to `Cn1cnc(NCc2ccncc2)c1C(=O)NCc1ccc2c(c1)OCO2`, for which the IC50 in data set [2] is 0.74 µM; in data set [3] it was 0.65 µM; in data set [4], 1.12 µM.

On to `Cn1ncc(NCc2ccncc2)c1C(=O)Nc1cnc2ccccc2c1`, for which the IC50 in data set [2] was 1.14 µM; in data set [3], 0.28 µM; in data set [4], 0.52 µM.

Turning to `Cc1noc(NCc2ccncc2)c1C(=O)Nc1ccc(C(F)(F)F)c(Cl)c1`, the IC50 in data set [2] came out at 0.32 µM; in data set [3], 0.56 µM; in data set [4], 1.11 µM.

Turning to `Cc1noc(NCc2ccncc2)c1C(=O)Nc1ccc(C(F)(F)F)c(C(F)(F)F)c1`, the figures for the concentration for half-maximal inhibition (IC50) in data set [2], in data set [3] and in data set [4] were over 10 µM, 4.23 µM and over 10 µM, respectively.

On to `Cn1cnc(NCc2ccncc2)c1C(=O)Nc1cc(C(F)(F)F)cc(C(F)(F)F)c1`, for which the IC50 in data set [2] came to 0.15 µM; in data set [3] it was 0.74 µM; in data set [4] it was 1.06 µM.

Consider `Cc1ccc(NC(=O)c2c(NCc3ccncc3)ncn2C)cc1C(F)(F)F`, for which the apparent permeability (Papp) in data set [1] was 5.93 ×10⁻⁶ cm/s. Besides, the IC50 worked out at 0.34 µM in data set [3] and 0.61 µM in data set [4].

Regarding `Cn1ncc(NCc2ccncc2)c1C(=O)Nc1cccc(Cl)c1`, the results for the IC50 in data set [2], in data set [3] and in data set [4] were over 10 µM, 2.06 µM and 3.22 µM, respectively.

`Cn1ncc([N+](=O)[O-])c1C(=O)O` showed an apparent permeability (Papp) in data set [1] of 5.4 ×10⁻⁶ cm/s.

`Cn1cnc(NCc2ccncc2)c1C(=O)Nc1cccc(Cl)c1`: the results for the IC50 in data set [2], in data set [3] and in data set [4] were over 10 µM, 2.06 µM and 3.22 µM, respectively.

As for `Cc1ccc(NC(=O)c2c(NCc3ccncc3)cnn2C)cc1C(F)(F)F`, the IC50 in data set [2] was 0.102 µM; in data set [3], 0.66 µM; in data set [4] it was 0.93 µM.

In the case of `Cc1noc(NCc2ccncc2)c1C(=O)Nc1ccc(-c2ccccc2)cc1`, the concentration for half-maximal inhibition (IC50) in data set [2], in data set [3] and in data set [4] was over 10 µM throughout.

As to `Cc1noc(NCc2ccncc2)c1C(=O)Nc1ccc(OC(F)(F)F)cc1`, the concentration for half-maximal inhibition (IC50) in data set [2] amounted to 0.91 µM; in data set [3] it was 2.12 µM; in data set [4] it was 3.55 µM.

`Cn1ncc(NCc2ccncc2)c1C(=O)Nc1ccc(Cl)c(C(F)(F)F)c1`: the IC50 was 0.11 µM in data set [2], 1.13 µM in data set [3] and 1.36 µM in data set [4].

On to `Cc1noc(NCc2ccncc2)c1C(=O)Nc1ccc(Cl)cc1`, for which the IC50 in data set [2], in data set [3] and in data set [4] was over 10 µM each time.
